Values quoted from earlier work, collected in patent US20050065175A1 (Xanodyne Pharmacal, Inc., priority 2003, published 2005).
Where a name gives a salt, the structure may show the parent alone.

Key:
[1] = water and ethanol
[2] = orally administered tablets, absorption through GI tract

| SMILES | solubility [1] | time until methadone can be detected in blood plasma after ingestion [2] [min] | bioavailability of oral transmucosal methadone (oral cavity fluid pH between about 7 and about 10) | oral bioavailability of methadone (oral cavity pH about 8 to about 9) [%] | bioavailability via the oral transmucosal route (pH about 6.5 to about 6.9 (normal saliva)) | bioavailability via the oral mucosa (pH of about 8.5) | portion of the orally bioavailable methadone in the bloodstream (within the first 2.5 minutes of delivery to the mucosal tissue) |
| --- | --- | --- | --- | --- | --- | --- | --- |
| CCC(=O)C(CC(C)N(C)C)(c1ccccc1)c1ccccc1 (stereo not shown) [Methadone hydrochloride] | soluble in water and ethanol | – | – | – | – | – | – |
| CCC(=O)C(CC(C)N(C)C)(c1ccccc1)c1ccccc1 (stereo not shown) [methadone] | – | ≤ 30 | 50-75% | ≤ 75 | about 34% | about 75% | 50-70% |
